SMILES strings stand for the structures.

In general, IC50 refers to the point on the concentration scale where inhibition reaches its midpoint. Low values mean higher potency, high ones lower potency.

The test is described as follows: Inhibition of human serum complement system-mediated hemolysis.
Take `CC/C=C/CCCCCCCC/C=C/C1=CC(C)OC1=O` (single isomer, unassigned) [LITSEALACTONE A]: 787 µM corresponded to half-maximal inhibition (IC50). In the case of `C=C/C=C/CCCCCCCC/C=C/C1=C[C@H](C)OC1=O` [AKOLACTONE B], inhibition was half-maximal at 58 µM (IC50).

In turn, `C#CCCCCCCCC/C=C/C1=C[C@H](C)OC1=O` [HAMABIWALACTONE A] had an IC50 of 714 µM. Molecule `C=CCCCCCCCC/C=C/C1=C[C@H](C)OC1=O` [HAMABIWALACTONE B] had an IC50 of 149 µM.

Turning to `O=C(/C=C/c1ccc(O)c(O)c1)O[C@H](Cc1ccc(O)c(O)c1)C(=O)O` [ROSMARINIC ACID], the IC50 was determined as 180 µM.

Values taken from ChEMBL document CHEMBL1147240, “Lactones from the leaves of Litsea japonica and their anti-complement activity” (J Nat Prod, 2003).
